Test results from patent US8257696B2, “Indefinite culture of human adult glia without immortalization and therapeutic uses thereof” (University of Florida Research Foundation, Inc., priority 2004, dated 2012).
“Also recorded” adds a separate entry of the source.

Key:
Type in all cases: cell-based, human
[1] = tested on: high passage cells (HES astroglia); assay: Growth rate by cell counting after reversible growth inhibitors and washout; details: for proliferation upon removal of growth inhibitors: after removal of inhibitor; for rate of cellular proliferation (growth rate): high passage cells, measured 7 days after addition
Method: Primary tissue was gathered from individuals undergoing surgery related to medically intractable temporal lobe epilepsy. Primary tissue was removed and stored overnight in ice-cold DMEM/F-12 medium containing 20 mg/ml penicillin, […] streptomycin., and 25 ng/ml amphotericin B (collectively 1× antibiotics). Hippocampus (containing hilus) and temporal cortex (not containing subventricular zone) were microdissected from biopsied tissue samples (n=4, data presented from person). Dissected tissues were placed in 1× phosphate buffered saline (PBS, pH 7.3) lacking CaCl2 or MgCl2, and were manually dissociated into 1 mm^3 pieces under sterile conditions. Tissues were collected and resuspended in 0.005% trypsin (15 min, 37° C., pH 7.3), and were further triturated using restricted bore pipetting. Cells were collected, resuspended in proliferative media, and seeded onto uncoated T75 culture flasks overnight (12 hr, 37° C., 5% humidified CO2). Unattached cells were collected and seeded onto uncoated 60 mm plastic dishes in proliferative media. Proliferative media was comprised of DMEM/F-12 containing N2 supplements, 35 μg/ml bovine pituitary extract, 1× antibiotics, 5% fetal calf serum (FCS), and 40 ng/ml of EGF and FGF. 20 ng of EGF and FGF were supplemented twice daily. When necessary, media was changed every fourth day. Cells were frozen in aliquots of 1 million cells in DMEM/F-12 containing 10% FCS and 20% dimethyl sulfoxide (v/v). Cells were passaged 1:2 when confluent. Cells were dissociated with 0.005% trypsin, counted (using trypan dye exclusion as viability criteria), and were replated onto uncoated 60 mm plastic dishes. For growth monitoring experiments, 1 μg/ml aphidicolin or 20 μM EGCG were added to culture media 1 hour after plating. Irradiated cells were treated with a single 3 Gy dose of X-irradiation. Following the period of application, cells were washed in 1×PBS and were resuspended in proliferative media or fixed. To assess viability of cells in various growth conditions, equal numbers of culture-matched cells were seeded into triplicate wells of various proliferative conditions, and counted 7, 14, and 21 days later. For growth factor analysis, EGF and/or FGF were removed for seven days, and surviving cells were returned to proliferative media. Significance (p<0.05) was calculated using a student's t-test. In vitro images of cultured cells were captured using a Nikon Eclipse TS-100 bright field microscope and a Spot 3.1 digital camera (Diagnostic Instruments).
Isolation and Culture of Tissue: Primary tissue was gathered from individuals undergoing surgery related to medically intractable temporal lobe epilepsy. […]

[2] = tested on: TERT; assay: Telomerase (TERT) expression after growth arrest; details: high passage cells, measured 7 days after addition
Method: Cells were plated on coverslips coated with poly-L-lysine or polyornithine and laminin and grown to confluency in proliferative media. Cells were fixed with 4% paraformaldehyde ([…], 25° C.). After washing with PBS, cells were blocked 20 min in PBS containing 10% FCS, 5% normal goat serum, and 0.01% Triton X-100. Primary antibodies were applied for either 1 hour at 25° C. or overnight at 4° C. in PBS containing 10% FCS and 0.01% Triton X-100. Primary antibodies: β III tubulin (mouse monoclonal, 1:300, Promega), BrdU (mouse monoclonal, 1:50, Becton-Dickinson), CNPase (mouse monoclonal, 1:250, Chemicon), GFAP (rabbit polyclonal, 1:600, DAKO), glutamine synthetase (rabbit polyclonal, 1:100, AbCam), map2a-c (chicken polyclonal, 1:30,000), nestin (mouse monoclonal, 1:50, Chemicon), O4 (mouse monoclonal IgM, 1:150, Chemicon), S100-β (rabbit polyclonal, 1:100, Swant), telomerase (rabbit polyclonal, 1:200, Santa Cruz). Secondary antibodies were applied for 45 min at 25° C. in PBS containing 10% FCS and 0.01% Triton X-100. […] SA-βGal expression was assessed 7 days after addition of growth arrestors as described (Dimri, G. P. et al. Proc Nat'l Acad Sci U S A 92, 9363-7 (1995)). […] Fluorescence microscopy was performed on a Leica DMLB upright microscope and images were captured with a Spot RT Color CCD camera (Diagnostic Instruments). […]

[3] = tested on: high passage cells (HES astroglia); assay: Senescence-associated β-galactosidase (SA-β-gal) expression after growth arrestors; details: evaluated 7 days after addition, 1 μg/ml aphidicolin or 20 μM EGCG, vs age-matched controls
Method: Primary tissue was gathered from individuals undergoing surgery related to medically intractable temporal lobe epilepsy. Primary tissue was removed and stored overnight in ice-cold DMEM/F-12 medium containing 20 mg/ml penicillin, […] streptomycin., and 25 ng/ml amphotericin B (collectively 1× antibiotics). Hippocampus (containing hilus) and temporal cortex (not containing subventricular zone) were microdissected from biopsied tissue samples (n=4, data presented from person). Dissected tissues were placed in 1× phosphate buffered saline (PBS, pH 7.3) lacking CaCl2 or MgCl2, and were manually dissociated into 1 mm^3 pieces under sterile conditions. Tissues were collected and resuspended in 0.005% trypsin (15 min, 37° C., pH 7.3), and were further triturated using restricted bore pipetting. Cells were collected, resuspended in proliferative media, and seeded onto uncoated T75 culture flasks overnight (12 hr, 37° C., 5% humidified CO2). […] Cells were dissociated with 0.005% trypsin, counted (using trypan dye exclusion as viability criteria), and were replated onto uncoated 60 mm plastic dishes. […] To assess viability of cells in various growth conditions, equal numbers of culture-matched cells were seeded into triplicate wells of various proliferative conditions, and counted 7, 14, and 21 days later. […] Significance (p<0.05) was calculated using a student's t-test. […]

Row | Compound | proliferation upon removal of growth inhibitors [1] | rate of cellular proliferation (growth rate) [1] | TERT (telomerase) expression [2] | SA-β-gal expression [3]
1 | C[C@@]1(CO)[C@H](O)CC[C@@]2(C)[C@H]1CC[C@H]1C[C@@H]3C[C@@]12CC[C@]3(O)CO [aphidicolin] | return to previous levels of proliferation | lose their ability to proliferate in culture | continue to express telomerase | marked increase in SA-β-Gal; also recorded: significantly higher levels of SA-β-gal than age-matched controls
2 | epigallocatechin-3-gallate [EGCG] | return to previous levels of proliferation | lose their ability to proliferate in culture; also recorded: significantly reduced; also recorded: significant reduction | continue to express telomerase; also recorded: remained detectable; also recorded: remained ubiquitous | marked increase in SA-β-Gal; also recorded: express SA-β-Gal
